We go through 14 compounds from ChEMBL document CHEMBL1156292, “Zwittermicin A: synthesis of analogs and structure-activity studies” (2010).

Assay type in all cases: functional
The subject of assay [1] is Candida albicans. Nature of the assay: Antifungal activity against Candida albicans 96-489 by disk diffusion assay. (A growth-free zone around the sample is the usual read-out of agar diffusion tests.)
For a further assay, the system named is Nakaseomyces glabratus. Nature of the assay: Antifungal activity against Candida glabrata by disk diffusion assay.
Assay [2] deals with Candida albicans. Nature of the assay: Antifungal activity against Candida albicans UCDFR1 by disk diffusion assay.
Assay [3] has as its system Candida albicans. Nature of the assay: Antifungal activity against Candida albicans ATCC 14503 by disk diffusion assay.
The next assay relates to Pichia kudriavzevii. Nature of the assay: Antifungal activity against Candida krusei by disk diffusion assay.
Assay [4] relates to Pectobacterium carotovorum. Nature of the assay: Antibacterial activity against Erwinia carotovora by disk diffusion assay.
The test system of the next assay is Erwinia amylovora. Nature of the assay: Antibacterial activity against Erwinia amylovora by disk diffusion assay.
The test system of the next assay is Phytophthora infestans. Nature of the assay: Antifungal activity against Phytophthora infestans by disk diffusion assay.

In brackets after ≈: the same amount, converted by molar mass.

Take `NC(=O)NC[C@H](NC(=O)[C@H](O)[C@@H](O)[C@@H](N)[C@@H](O)C[C@@H](O)[C@@H](N)CO)C(N)=O`: the minimum inhibitory concentration (MIC) (in the assay on Candida albicans [1]; against Nakaseomyces glabratus; in the assay on Candida albicans [2]; in the assay on Candida albicans [3]; against Pichia kudriavzevii; in assay [4]) was over 128 µg/mL throughout. Also, the MIC in the assay with Erwinia amylovora was over 128 µg/mL; against Phytophthora infestans, over 32 µg/mL.

For the compound `N[C@H](CO)[C@@H](O)C[C@H](O)[C@H](N)CO`, the MIC (against Candida albicans [1]; against Nakaseomyces glabratus; with Candida albicans [2]; against Candida albicans [3]; with Pichia kudriavzevii; in assay [4]) was over 128 µg/mL in each case. Also, the values for the minimal inhibitory concentration (MIC) against Erwinia amylovora and against Phytophthora infestans were over 128 µg/mL and over 32 µg/mL, respectively.

As to `NC(=O)NC[C@H](NC(=O)[C@H](O)[C@@H](O)[C@@H](N)[C@@H](O)C[C@H](O)[C@H](N)CO)C(N)=O`, the MIC against Candida albicans [1] was 55.7 µg/mL (≈ 141 µM); in the assay with Nakaseomyces glabratus, 59.5 µg/mL (≈ 150 µM); against Candida albicans [2] it was over 128 µg/mL; in the assay on Candida albicans [3], over 128 µg/mL; in the assay with Pichia kudriavzevii, over 128 µg/mL; in assay [4], 22.2 µg/mL (≈ 56 µM). Further, the MIC in the assay on Erwinia amylovora is 18.8 µg/mL (≈ 47.4 µM); against Phytophthora infestans, over 32 µg/mL.

`N[C@@H](CO)[C@@H](O)C[C@H](O)[C@@H](N)CO`: the MIC against Candida albicans [1], against Nakaseomyces glabratus, in the assay on Candida albicans [2], against Candida albicans [3] and in the assay with Pichia kudriavzevii was over 128 µg/mL each time.

Take `NC(=O)NC[C@H](NC(=O)[C@@H](O)[C@H](O)[C@H](N)CO)C(N)=O`: the MIC (with Candida albicans [1]; in the assay on Nakaseomyces glabratus; in the assay with Candida albicans [2]; with Candida albicans [3]; with Pichia kudriavzevii; in assay [4]) was over 128 µg/mL in each case. Further, the figures for the MIC against Erwinia amylovora and against Phytophthora infestans were over 128 µg/mL and over 32 µg/mL, respectively.

As to `NC(=O)NC[C@@H](NC(=O)[C@H](O)[C@@H](O)[C@@H](N)[C@@H](O)C[C@@H](O)[C@@H](N)CO)C(N)=O`, the MIC (in the assay on Candida albicans [1]; against Nakaseomyces glabratus; in the assay on Candida albicans [2]; in the assay on Candida albicans [3]; in the assay with Pichia kudriavzevii; in assay [4]) was over 128 µg/mL in each case. Further, the minimal inhibitory concentration (MIC) with Erwinia amylovora is over 128 µg/mL; with Phytophthora infestans, over 32 µg/mL.

In the case of `N[C@H](CO)[C@@H](O)C[C@H](O)[C@@H](N)CO`, the MIC in the assay on Candida albicans [1], with Nakaseomyces glabratus, in the assay on Candida albicans [2], in the assay with Candida albicans [3] and with Pichia kudriavzevii was over 128 µg/mL in each case.

Regarding `NC(=O)NC[C@@H](NC(=O)[C@@H](O)[C@H](O)[C@H](N)CO)C(N)=O`, the MIC (against Candida albicans [1]; in the assay on Nakaseomyces glabratus; with Candida albicans [2]; with Candida albicans [3]; against Pichia kudriavzevii; in assay [4]) was over 128 µg/mL each time. The minimal inhibitory concentration (MIC) was over 128 µg/mL with Erwinia amylovora and over 32 µg/mL with Phytophthora infestans.

As for `N[C@@H](CO)[C@H](O)C[C@@H](O)[C@@H](N)CO`, the minimum inhibitory concentration (MIC) against Candida albicans [1], with Nakaseomyces glabratus, in the assay on Candida albicans [2], in the assay on Candida albicans [3] and against Pichia kudriavzevii was over 128 µg/mL in each case.

As to `NC(=O)NC[C@@H](NC(=O)[C@@H](O)[C@H](O)[C@H](N)[C@H](O)C[C@@H](O)[C@@H](N)CO)C(N)=O` [ENT-ZWITTERMICIN A], the MIC (in the assay on Candida albicans [1]; against Nakaseomyces glabratus; against Candida albicans [2]; with Candida albicans [3]; against Pichia kudriavzevii; in assay [4]) was over 128 µg/mL in each case. Besides, the MIC is over 128 µg/mL with Erwinia amylovora and over 32 µg/mL in the assay on Phytophthora infestans.

As to `NC(=O)NC[C@H](NC(=O)[C@@H](O)[C@H](O)[C@H](N)[C@H](O)C[C@@H](O)[C@@H](N)CO)C(N)=O`, the minimum inhibitory concentration (MIC) (in the assay on Candida albicans [1]; against Nakaseomyces glabratus; with Candida albicans [2]; in the assay with Candida albicans [3]; against Pichia kudriavzevii; in assay [4]) was over 128 µg/mL each time. Besides, the values for the minimum inhibitory concentration (MIC) against Erwinia amylovora and against Phytophthora infestans were over 128 µg/mL and over 32 µg/mL, respectively.

Turning to `N[C@H](CO)[C@H](O)C[C@H](O)[C@H](N)CO`, the MIC in the assay with Candida albicans [1], in the assay with Nakaseomyces glabratus, with Candida albicans [2], with Candida albicans [3] and against Pichia kudriavzevii was over 128 µg/mL each time.

On to `N[C@H](CO)[C@H](O)C[C@H](O)[C@@H](N)CO`, for which the MIC in the assay on Candida albicans [1], with Nakaseomyces glabratus, against Candida albicans [2], in the assay with Candida albicans [3] and in the assay on Pichia kudriavzevii was over 128 µg/mL in each case.

Turning to `N[C@@H](CO)[C@H](O)C[C@H](O)[C@@H](N)CO`, the MIC against Candida albicans [1], in the assay on Nakaseomyces glabratus, with Candida albicans [2], against Candida albicans [3] and against Pichia kudriavzevii was over 128 µg/mL each time.

One may read the MIC as the smallest concentration in the dilution series that meets the test's criterion for growth inhibition. A low value points to greater potency.
